Experimental data published in patent US11053244B1, “4-azaindole compounds” (BRISTOL-MYERS SQUIBB COMPANY, priority 2017, dated 2021).
One block for each compound: values may come before it.

Key:
TLR7 = TLR7 (Mus musculus (Mouse), UniProt P58681); experiment: In vivo mouse TLR7 PD model (gardiquimod-induced plasma IL-6 and IFN-alpha); settings: plasma 90 min after gardiquimod, vs vehicle
Description: In Vivo Mouse TLR7 PD Model:
Adult male C5-7BL/6 mice were used for the experiments. Mice (7 to 10 per group) were randomized into different treatment groups based on body weight. Mice from the respective treatment groups were administered orally with vehicle or test compound. Thirty min after the oral administration of vehicle or test compound, mice were challenged with intraperitoneal injection of gardiquimod for TLR7 PD model. Ninety minutes after gardiquimod injection, mice were bled under isoflurane anaesthesia and plasma IL-6 and IFN-alpha levels were estimated by using commercially available ELISA kit (BD Biosciences, PBL Life Sciences). At the end of experiment, mean cytokine data was plotted and one way ANOVA with Dunnett's test was performed to calculate the significance of test compound treated group vs. vehicle control group. Percent inhibition of cytokine induction was calculated for test compound treated group vs vehicle control group.

human TLR7 = human TLR7 (Homo sapiens (Human), UniProt Q9NYK1); experiment: TLR7 inhibition reporter assay (HEK-Blue cells, SEAP reporter, gardiquimod stimulation); assay type: cell-based
Description: (§1) HEK-Blue™-cells (Invivogen) overexpressing human TLR7, TLR8 or TLR9 receptors were used for screening inhibitors of these receptors using an inducible SEAP (secreted embryonic alkaline phosphatase) reporter gene under the control of the IFN-β minimal promoter fused to five NF-κB and AP-1-binding sites. Briefly, cells are seeded into Greiner 384 well plates (15000 cells per well for TLR7, 20,000 for TLR8 and 25,000 for TLR9) and then treated with test compounds in DMSO to yield a final dose response concentration range of 0.05 nM-50 μM. After a 30 minute compound pre-treatment at room temperature, the cells are then stimulated with a TLR7 ligand (gardiquimod at a final concentration of 7.5 μM), TLR8 ligand (R848 at a final concentration of 15.9 μM) or TLR9 ligand (ODN2006 at a final concentration of 5 nM) to activate NF-κB and AP-1 which induce the production of SEAP. After a 22 hour incubation at 37° C., 5% CO2, SEAP levels are determined with the addition of HEK-Blue™ Detection reagent (Invivogen), a cell culture medium that allows for detection of SEAP, according to manufacturer's specifications.

human TLR8 = human TLR8 (Homo sapiens (Human), UniProt Q9NR97); experiment: TLR8 inhibition reporter assay (HEK-Blue cells, SEAP reporter, R848 stimulation); settings: read-out: TLR8 IC50
Description: TLR7/8/9 Inhibition Reporter Assays
as §1

human TLR9 = human TLR9 (Homo sapiens (Human), UniProt Q9NR96); experiment: TLR9 inhibition reporter assay (HEK-Blue cells, SEAP reporter, ODN2006 stimulation); settings: read-out: TLR9 IC50
Description: TLR7/8/9 Inhibition Reporter Assays
as §1

[1] = oral dose 0.005 mg/kg 30 min before i.p. gardiquimod
[2] = oral dose 0.01 mg/kg 30 min before i.p. gardiquimod
[3] = oral dose 0.05 mg/kg 30 min before i.p. gardiquimod
[4] = oral dose 0.25 mg/kg 30 min before i.p. gardiquimod
[5] = oral dose 0.5 mg/kg 30 min before i.p. gardiquimod
[6] = oral dose 0.0015 mg/kg 30 min before i.p. gardiquimod
[7] = oral dose 0.003 mg/kg 30 min before i.p. gardiquimod
[8] = oral dose 0.015 mg/kg 30 min before i.p. gardiquimod
[9] = oral dose 0.075 mg/kg 30 min before i.p. gardiquimod
[10] = oral dose 0.15 mg/kg 30 min before i.p. gardiquimod
[11] = oral dose 0.006 mg/kg 30 min before i.p. gardiquimod
[12] = oral dose 0.03 mg/kg 30 min before i.p. gardiquimod
[13] = oral dose 0.3 mg/kg 30 min before i.p. gardiquimod

Chain of TLR7 (P58681 27-1050): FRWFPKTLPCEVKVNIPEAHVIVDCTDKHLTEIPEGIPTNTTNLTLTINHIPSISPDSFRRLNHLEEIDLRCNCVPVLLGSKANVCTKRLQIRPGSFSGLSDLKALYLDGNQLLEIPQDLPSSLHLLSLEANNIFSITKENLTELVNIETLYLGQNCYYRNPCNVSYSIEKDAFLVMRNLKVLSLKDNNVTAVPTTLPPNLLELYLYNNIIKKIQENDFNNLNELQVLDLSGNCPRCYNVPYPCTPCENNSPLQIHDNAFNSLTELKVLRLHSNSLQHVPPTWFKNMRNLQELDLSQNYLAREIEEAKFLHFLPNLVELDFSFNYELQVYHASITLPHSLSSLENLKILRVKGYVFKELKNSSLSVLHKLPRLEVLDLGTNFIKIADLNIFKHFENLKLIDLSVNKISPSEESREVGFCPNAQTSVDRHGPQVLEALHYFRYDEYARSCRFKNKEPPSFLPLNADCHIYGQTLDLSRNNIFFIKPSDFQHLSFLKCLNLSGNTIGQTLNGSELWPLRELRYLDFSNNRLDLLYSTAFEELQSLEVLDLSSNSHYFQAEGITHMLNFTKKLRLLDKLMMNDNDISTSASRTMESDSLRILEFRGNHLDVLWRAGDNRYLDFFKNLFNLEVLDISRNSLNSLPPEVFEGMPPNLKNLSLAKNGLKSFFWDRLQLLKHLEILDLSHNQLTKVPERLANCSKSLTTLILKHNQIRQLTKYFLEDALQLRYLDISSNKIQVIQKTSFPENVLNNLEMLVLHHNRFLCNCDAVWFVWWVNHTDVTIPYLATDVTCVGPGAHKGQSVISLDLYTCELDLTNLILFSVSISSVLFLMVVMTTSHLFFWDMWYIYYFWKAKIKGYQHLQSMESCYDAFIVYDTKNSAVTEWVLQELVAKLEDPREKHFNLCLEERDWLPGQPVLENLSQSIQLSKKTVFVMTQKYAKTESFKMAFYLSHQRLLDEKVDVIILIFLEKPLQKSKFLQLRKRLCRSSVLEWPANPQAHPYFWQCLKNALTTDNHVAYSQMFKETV
Chain of human TLR8 (Q9NR97 27-1041): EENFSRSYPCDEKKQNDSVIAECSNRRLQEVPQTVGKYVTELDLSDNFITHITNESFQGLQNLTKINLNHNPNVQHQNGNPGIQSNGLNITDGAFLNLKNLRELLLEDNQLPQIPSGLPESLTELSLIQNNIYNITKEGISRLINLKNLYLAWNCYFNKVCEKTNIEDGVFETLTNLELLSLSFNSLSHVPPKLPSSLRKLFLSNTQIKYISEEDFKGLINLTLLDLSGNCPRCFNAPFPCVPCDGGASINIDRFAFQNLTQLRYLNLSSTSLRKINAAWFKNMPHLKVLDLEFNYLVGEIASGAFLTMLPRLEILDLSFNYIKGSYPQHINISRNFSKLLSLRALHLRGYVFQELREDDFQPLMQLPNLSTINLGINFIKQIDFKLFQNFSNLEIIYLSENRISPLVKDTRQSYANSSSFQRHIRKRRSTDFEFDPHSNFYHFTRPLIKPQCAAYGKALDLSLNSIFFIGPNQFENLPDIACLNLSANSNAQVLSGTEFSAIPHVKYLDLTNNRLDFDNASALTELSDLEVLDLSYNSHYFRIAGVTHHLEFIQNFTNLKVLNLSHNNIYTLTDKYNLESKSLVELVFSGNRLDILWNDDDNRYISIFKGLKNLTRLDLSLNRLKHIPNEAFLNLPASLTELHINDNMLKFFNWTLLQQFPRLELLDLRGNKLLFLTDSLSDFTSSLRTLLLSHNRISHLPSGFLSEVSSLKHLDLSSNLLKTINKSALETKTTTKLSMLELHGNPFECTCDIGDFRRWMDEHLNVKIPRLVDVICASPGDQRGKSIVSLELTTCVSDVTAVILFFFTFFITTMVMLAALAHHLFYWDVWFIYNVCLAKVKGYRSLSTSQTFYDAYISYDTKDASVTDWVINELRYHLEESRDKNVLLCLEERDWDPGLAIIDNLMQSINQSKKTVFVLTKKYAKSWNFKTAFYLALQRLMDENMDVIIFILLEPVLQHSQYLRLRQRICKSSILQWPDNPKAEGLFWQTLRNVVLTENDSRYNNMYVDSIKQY
Chain of human TLR7 (Q9NYK1 27-1049): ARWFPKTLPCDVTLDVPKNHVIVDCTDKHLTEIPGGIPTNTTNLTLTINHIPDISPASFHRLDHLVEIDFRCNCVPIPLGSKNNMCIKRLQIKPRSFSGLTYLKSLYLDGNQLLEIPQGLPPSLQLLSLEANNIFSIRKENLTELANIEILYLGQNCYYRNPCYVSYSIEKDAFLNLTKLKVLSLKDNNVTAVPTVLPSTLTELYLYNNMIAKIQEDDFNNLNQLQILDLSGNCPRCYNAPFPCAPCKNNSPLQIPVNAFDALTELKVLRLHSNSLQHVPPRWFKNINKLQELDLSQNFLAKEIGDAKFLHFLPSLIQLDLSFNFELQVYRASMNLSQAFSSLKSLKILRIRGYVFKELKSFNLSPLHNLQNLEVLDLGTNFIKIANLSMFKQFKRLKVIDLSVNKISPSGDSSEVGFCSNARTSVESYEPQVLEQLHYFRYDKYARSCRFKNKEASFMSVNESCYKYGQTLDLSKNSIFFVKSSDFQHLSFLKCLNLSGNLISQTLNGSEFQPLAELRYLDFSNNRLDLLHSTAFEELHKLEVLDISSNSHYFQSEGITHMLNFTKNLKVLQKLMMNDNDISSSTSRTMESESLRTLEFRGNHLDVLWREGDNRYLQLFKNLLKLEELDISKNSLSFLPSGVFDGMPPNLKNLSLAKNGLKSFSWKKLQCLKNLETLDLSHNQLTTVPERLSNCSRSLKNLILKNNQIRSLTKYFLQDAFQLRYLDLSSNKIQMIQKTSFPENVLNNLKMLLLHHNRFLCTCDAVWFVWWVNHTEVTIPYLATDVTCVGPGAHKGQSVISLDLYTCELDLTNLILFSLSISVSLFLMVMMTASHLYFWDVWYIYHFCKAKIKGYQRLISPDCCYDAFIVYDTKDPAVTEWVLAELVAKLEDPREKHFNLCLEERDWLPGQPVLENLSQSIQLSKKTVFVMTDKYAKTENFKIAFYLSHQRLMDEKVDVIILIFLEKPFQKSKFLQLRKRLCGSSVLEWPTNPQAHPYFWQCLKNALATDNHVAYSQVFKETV
Chain of human TLR9 (Q9NR96 26-1032): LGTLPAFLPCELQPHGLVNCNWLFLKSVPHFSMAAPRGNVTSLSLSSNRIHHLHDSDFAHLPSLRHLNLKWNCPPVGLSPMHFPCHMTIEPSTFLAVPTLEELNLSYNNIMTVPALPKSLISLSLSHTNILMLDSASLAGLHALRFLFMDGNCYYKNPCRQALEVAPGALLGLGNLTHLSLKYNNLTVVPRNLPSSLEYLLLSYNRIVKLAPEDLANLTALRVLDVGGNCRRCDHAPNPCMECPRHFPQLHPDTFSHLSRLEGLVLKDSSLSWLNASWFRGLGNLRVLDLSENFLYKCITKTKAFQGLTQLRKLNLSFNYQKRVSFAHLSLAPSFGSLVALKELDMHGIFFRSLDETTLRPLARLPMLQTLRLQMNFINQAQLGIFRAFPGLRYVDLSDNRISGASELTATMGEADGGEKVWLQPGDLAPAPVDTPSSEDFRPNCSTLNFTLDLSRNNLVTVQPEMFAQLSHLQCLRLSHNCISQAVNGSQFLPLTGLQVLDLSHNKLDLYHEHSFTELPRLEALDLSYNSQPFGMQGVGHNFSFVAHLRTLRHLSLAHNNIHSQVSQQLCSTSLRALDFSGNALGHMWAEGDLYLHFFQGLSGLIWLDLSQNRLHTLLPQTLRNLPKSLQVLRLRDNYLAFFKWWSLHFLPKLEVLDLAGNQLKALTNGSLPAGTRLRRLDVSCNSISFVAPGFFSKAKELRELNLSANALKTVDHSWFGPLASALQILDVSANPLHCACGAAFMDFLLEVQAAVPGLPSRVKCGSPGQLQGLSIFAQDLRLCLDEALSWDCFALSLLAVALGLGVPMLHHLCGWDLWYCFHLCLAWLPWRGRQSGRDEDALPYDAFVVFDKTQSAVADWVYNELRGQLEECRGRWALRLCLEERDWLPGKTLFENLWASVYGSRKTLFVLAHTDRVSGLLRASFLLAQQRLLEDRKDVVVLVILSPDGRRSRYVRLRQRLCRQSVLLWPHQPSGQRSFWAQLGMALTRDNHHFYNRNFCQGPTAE

% inhibition of IFN-alpha (TLR7; [1]): 29%
% inhibition of IL6 (TLR7; [1]): 0%
% inhibition of IFN-alpha (TLR7; [2]): 37%
% inhibition of IL6 (TLR7; [2]): 24%
% inhibition of IFN-alpha (TLR7; [3]): 94%
% inhibition of IL6 (TLR7; [3]): 75%
% inhibition of IFN-alpha (TLR7; [4]): 99%
% inhibition of IL6 (TLR7; [4]): 90%
% inhibition of IFN-alpha (TLR7; [5]): 100%
% inhibition of IL6 (TLR7; [5]): 91%
SMILES: Cc1c(-c2[nH]c3ccc(N4CCN(C(=O)CN(C)C)CC4)nc3c2C(C)C)cn2ncnc2c1C [Example 3, 1-(4-(2-(7,8-dimethyl-[1,2,4]triazolo[1,5-a]pyridin-6-yl)-3-isopropyl-1H-pyrrolo[3,2-b]pyridin-5-yl)piperazin-1-yl)-2-(dimethylamino)ethan-1-one]

% inhibition of IFN-alpha (TLR7; [6]): 0%
% inhibition of IL6 (TLR7; [6]): 0%
% inhibition of IFN-alpha (TLR7; [7]): 33%
% inhibition of IL6 (TLR7; [7]): 23%
% inhibition of IFN-alpha (TLR7; [8]): 74%
% inhibition of IL6 (TLR7; [8]): 75%
% inhibition of IFN-alpha (TLR7; [9]): 93%
% inhibition of IL6 (TLR7; [9]): 76%
% inhibition of IFN-alpha (TLR7; [10]): 99%
% inhibition of IL6 (TLR7; [10]): 95%
SMILES: Cc1c(-c2[nH]c3ccc(C4CCC(NCC5(S(C)(=O)=O)CC5)CC4)nc3c2C(C)C)cn2ncnc2c1C (stereo not drawn) [Example 4, 4-(2-(7,8-dimethyl-[1,2,4]triazolo[1,5-a]pyridin-6-yl)-3-isopropyl-1H-pyrrolo[3,2-b]pyridin-5-yl)-N-((1-(methylsulfonyl)cyclopropyl)methyl)cyclohexan-1-amine]

% inhibition of IFN-alpha (TLR7; [7]): 36%
% inhibition of IL6 (TLR7; [7]): 25%
% inhibition of IFN-alpha (TLR7; [11]): 57%
% inhibition of IL6 (TLR7; [11]): 41%
% inhibition of IFN-alpha (TLR7; [12]): 67%
% inhibition of IL6 (TLR7; [12]): 56%
% inhibition of IFN-alpha (TLR7; [10]): 96%
% inhibition of IL6 (TLR7; [10]): 78%
% inhibition of IFN-alpha (TLR7; [13]): 98%
% inhibition of IL6 (TLR7; [13]): 82%
SMILES: Cc1c(-c2[nH]c3ccc(C4CCC(N5CC6(C5)CS(=O)(=O)C6)CC4)nc3c2C(C)C)cn2ncnc2c1C (stereo not drawn) [Example 438, 6-((1r,4r)-(4-(2-(7,8-dimethyl-[1,2,4]triazolo[1,5-a]pyridin-6-yl)-3-isopropyl-1H-pyrrolo[3,2-b]pyridin-5-yl)cyclohexyl)-2-thia-6-azaspiro[3.3]heptane 2,2-dioxide]

IC50 (human TLR7): 4.3 nM
IC50 (human TLR8): 9.2 nM
IC50 (human TLR9): 9840 nM
SMILES: Cc1c(-c2[nH]c3ccc(N4C[C@H]5C[C@@H]4CN5C4CCOC4)nc3c2C(C)C)cn2ncnc2c1C (stereo partly drawn) [Example 771]
